Columns and labels:
human V2 receptor = molecular target: T1, human V2 receptor (Homo sapiens, UniProt P30518); assay: Cellular in vitro assay for determining the vasopressin receptor activity (aequorin luminescence, recombinant CHO cells), human V2; assay type: cell-based; conditions: CHO cells expressing aequorin and Gα16, transfected with human V2 receptor; agonist [Arg8]-vasopressin; read-out: IC50 hV2
T1 construct: expressed in transfected cells; host or cells: CHO K1 (ATCC), constitutively expressing modified aequorin, co-transfected with promiscuous G-alpha-16
T1 sequence (P30518 whole entry): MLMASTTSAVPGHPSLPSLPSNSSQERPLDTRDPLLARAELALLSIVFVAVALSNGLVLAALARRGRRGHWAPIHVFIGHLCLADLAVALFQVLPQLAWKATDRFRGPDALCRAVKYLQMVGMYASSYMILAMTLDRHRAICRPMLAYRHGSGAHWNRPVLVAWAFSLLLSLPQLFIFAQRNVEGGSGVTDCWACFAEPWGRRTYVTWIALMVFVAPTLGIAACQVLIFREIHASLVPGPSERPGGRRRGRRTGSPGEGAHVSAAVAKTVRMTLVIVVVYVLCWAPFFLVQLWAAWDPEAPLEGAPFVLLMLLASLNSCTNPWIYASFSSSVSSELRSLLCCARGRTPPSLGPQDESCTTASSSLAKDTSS
Text: (§1) B-1. Cellular In Vitro Assay for Determining the Vasopressin Receptor Activity
(§2) The identification of agonists and antagonists of the V1a and V2 vasopressin receptors from humans and rats and also the quantification of the activity of the substances described here takes place using recombinant cell lines. These cells derive originally from a hamster's ovary epithelial cell (Chinese Hamster Ovary, CHO K1, ATCC: American Type Culture Collection, Manassas, Va. 20108, USA). The test cell lines constitutively express a modified form of the calcium-sensitive photoprotein aequorin, which, after reconstitution with the cofactor coelenterazine, emits light when there are increases in the free calcium concentration (Rizzuto R., Simpson A. W., Brini M., Pozzan T.; Nature 358 (1992) 325-327). In addition, the cells are stably transfected with the human or rat V1a or V2 receptors. In the case of the Gs-coupling V2 receptors, the cells are stably transfected with a further gene, which codes for the promiscuous Gα16 protein (Amatruda T. T., Steele D. A., Slepak V. Z., Simon M A., Proc. Na. Acad. Sci. USA 88 (1991), 5587-5591), either independently or as a fusion gene. The resulting vasopressin receptor test cells react to stimulation of the recombinantly expressed vasopressin receptors by intracellular release of calcium ions, which can be quantified by the resulting aequorin luminescence using a suitable luminometer (Milligan G., Marshall F., Rees S., Trends in Pharmaco. Sci. 17 (1996) 235-237).
(§3) On the day before the assay, the cells are plated out in culture medium (DMEM, 10% FCS, 2 mM glutamine, 10 mM HEPES) in 384-well microtiter plates and kept in a cell incubator (96% atmospheric humidity, 5% v/v carbon dioxide, 37° C.). On the day of the assay, the culture medium is replaced by a Tyrode solution (140 mM sodium chloride, 5 mM potassium chloride, 1 mM magnesium chloride, 2 mM calcium chloride, 20 mM glucose, 20 mM HEPES), which additionally contains the cofactor coelenterazine (50 μM), and the microtiter plate is then incubated for a further 3-4 hours. The test substances in various concentrations are placed for 10 to 20 minutes in the wells of the microtiter plate before the agonist [Arg8]-vasopressin is added, and the resulting light signal is measured immediately in the luminometer. The IC50 values are calculated using the GraphPad PRISM computer program (Version 3.02).
(§4) Table A below lists representative IC50 values for the compounds according to the invention transfected with the human V1a or V2 receptor: […]

human V1a receptor = molecular target: T2, human V1a receptor (Homo sapiens, UniProt P37288); assay: Cellular in vitro assay for determining the vasopressin receptor activity (aequorin luminescence, recombinant CHO cells), human V1a; assay type: cell-based; conditions: CHO cells expressing aequorin, transfected with human V1a receptor; agonist [Arg8]-vasopressin; read-out: IC50 hV1a
T2 construct: expressed in transfected cells; host or cells: CHO K1 (ATCC), constitutively expressing modified aequorin
T2 sequence (P37288 whole entry): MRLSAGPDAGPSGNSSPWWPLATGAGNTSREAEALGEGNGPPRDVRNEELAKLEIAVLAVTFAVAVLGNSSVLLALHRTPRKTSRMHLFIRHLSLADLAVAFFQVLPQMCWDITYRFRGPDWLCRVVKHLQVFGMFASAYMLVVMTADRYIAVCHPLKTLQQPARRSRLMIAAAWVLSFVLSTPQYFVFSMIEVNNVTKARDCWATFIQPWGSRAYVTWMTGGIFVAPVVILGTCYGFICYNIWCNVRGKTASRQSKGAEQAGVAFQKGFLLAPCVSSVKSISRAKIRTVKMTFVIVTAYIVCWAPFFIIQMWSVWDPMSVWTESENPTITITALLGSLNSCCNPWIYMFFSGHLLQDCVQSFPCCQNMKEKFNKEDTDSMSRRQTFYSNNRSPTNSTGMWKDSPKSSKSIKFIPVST
Text: as §1, §2, §3, §4

SMILES | IC50 (human V2 receptor) [nM] | IC50 (human V1a receptor) [nM]
CCOC(=O)C1(NC(=O)C(NC(=O)Cn2nc(-c3ccc(Cl)cc3)n(C3CC3)c2=O)c2cccc(C(F)(F)F)c2)CC1 (racemic) [Example 5, Ethyl 1-({({[3-(4-chlorophenyl)-4-cyclopropyl-5-oxo-4,5-dihydro-1H-1,2,4-triazol-1-yl]acetyl}-amino) [3-(trifluoromethyl)phenyl]acetyl}amino)cyclopropanecarboxylate] | 1170 | 42
COC(=O)C(C)(C)NC(=O)C(NC(=O)Cn1nc(-c2ccc(Cl)cc2)n(C2CC2)c1=O)c1cccc(C(F)(F)F)c1 (racemic) [Example 11, Methyl N-{({[3-(4-chlorophenyl)-4-cyclopropyl-5-oxo-4,5-dihydro-1H-1,2,4-triazol-1-yl]acetyl}-amino)[3-(trifluoromethyl)phenyl]acetyl}-2-methylalaninate] | 497 | 28
CC(C)(NC(=O)C(NC(=O)Cn1nc(-c2ccc(Cl)cc2)n(C2CC2)c1=O)c1cccc(C(F)(F)F)c1)C(=O)O (racemic) [Example 12, N-{({[3-(4-Chlorophenyl)-4-cyclopropyl-5-oxo-4,5-dihydro-1H-1,2,4-triazol-1-yl]acetyl}amino) [3-(trifluoromethyl)phenyl]acetyl}-2-methylalanine] | 182 | 24
COC(=O)CCNC(=O)C(NC(=O)Cn1nc(-c2ccc(Cl)cc2)n(C2CC2)c1=O)c1cccc(C(F)(F)F)c1 (racemic) [Example 15, Methyl N-{({[3-(4-chlorophenyl)-4-cyclopropyl-5-oxo-4,5-dihydro-1H-1,2,4-triazol-1-yl]acetyl}-amino) [3-(trifluoromethyl)phenyl]acetyl}-beta-alaninate] | 310 | 12
O=C(O)CCNC(=O)C(NC(=O)Cn1nc(-c2ccc(Cl)cc2)n(C2CC2)c1=O)c1cccc(C(F)(F)F)c1 (racemic) [Example 16, N-{({[3-(4-Chlorophenyl)-4-cyclopropyl-5-oxo-4,5-dihydro-1H-1,2,4-triazol-1-yl]acetyl}amino) [3-(trifluoromethyl)phenyl]acetyl}-beta-alanine] | 262 | 524
CC(C)(NC(=O)C(NC(=O)Cn1nc(-c2ccc(Cl)cc2)n(CCC(F)(F)F)c1=O)c1ccccc1C(F)(F)F)C(N)=O (racemic) [Example 32, N^2-{({[3-(4-Chlorophenyl)-5-oxo-4-(3,3,3-trifluoropropyl)-4,5-dihydro-1H-1,2,4-triazol-1-yl]acetyl}amino) [2-(trifluoromethyl)phenyl]acetyl}-2-methylalaninamide] | 1270 | 7.1
CC(C)(NC(=O)C(NC(=O)Cn1nc(-c2ccc(Cl)cc2)n(Cc2ccccc2F)c1=O)c1ccccc1Cl)C(N)=O (racemic) [Example 33, N^2-[(2-Chlorophenyl)({[3-(4-chlorophenyl)-4-(2-fluorobenzyl)-5-oxo-4,5-dihydro-1H-1,2,4-triazol-1-yl]acetyl}amino)acetyl]-2-methylalaninamide] | 1050 | 17
CC(C)(NC(=O)C(NC(=O)Cn1nc(-c2ccc(Cl)cc2)n(CCC(F)(F)F)c1=O)c1ccccc1Cl)C(N)=O (racemic) [Example 35, N^2-[(2-Chlorophenyl)({[3-(4-chlorophenyl)-5-oxo-4-(3,3,3-trifluoropropyl)-4,5-dihydro-1H-1,2,4-triazol-1-yl]acetyl}amino)acetyl]-2-methylalaninamide] | 655 | 8.9
CC(C)(NC(=O)C(NC(=O)Cn1nc(-c2ccc(Cl)cc2)n(Cc2ccccc2F)c1=O)c1cccc(Cl)c1Cl)C(N)=O (racemic) [Example 36, N^2-[({[3-(4-Chlorophenyl)-4-(2-fluorobenzyl)-5-oxo-4,5-dihydro-1H-1,2,4-triazol-1-yl]acetyl}-amino)(2,3-dichlorophenyl)acetyl]-2-methylalaninamide] | 780 | 88.2
O=C(Cn1nc(-c2ccc(Cl)cc2)n(C[C@H](O)C(F)(F)F)c1=O)NC(C(=O)NC1(C(=O)O)CC1)c1cccc(C(F)(F)F)c1 (single isomer, unassigned) [Example 3] | 467 | 554
O=C(Cn1nc(-c2ccc(Cl)cc2)n(C[C@H](O)C(F)(F)F)c1=O)NC(C(=O)NC1(C(=O)O)CC1)c1cccc(C(F)(F)F)c1 (single isomer, unassigned) [Example 4] | 4.1 | 1.9
NC(=O)CCNC(=O)C(NC(=O)Cn1nc(-c2ccc(Cl)cc2)n(C[C@H](O)C(F)(F)F)c1=O)c1cccc(C(F)(F)F)c1 (single isomer, unassigned) [Example 17] | 22 | 1420
NC(=O)CCNC(=O)C(NC(=O)Cn1nc(-c2ccc(Cl)cc2)n(C[C@H](O)C(F)(F)F)c1=O)c1cccc(C(F)(F)F)c1 (single isomer, unassigned) [Example 18] | 1.9 | 1.2
CC(C)(NC(=O)C(NC(=O)Cn1nc(-c2ccc(Cl)cc2)n(C[C@H](O)C(F)(F)F)c1=O)c1cccc(C(F)(F)F)c1)C(=O)O (single isomer, unassigned) [Example 25] | 282 | 502
CC(C)(NC(=O)C(NC(=O)Cn1nc(-c2ccc(Cl)cc2)n(C[C@H](O)C(F)(F)F)c1=O)c1cccc(C(F)(F)F)c1)C(=O)O (single isomer, unassigned) [Example 26] | 2.3 | 1.7
CC(C)(NC(=O)C(NC(=O)Cn1nc(-c2ccc(Cl)cc2)n(C[C@H](O)C(F)(F)F)c1=O)c1cccc(C(F)(F)F)c1)C(N)=O (single isomer, unassigned) [Example 28] | 346 | 1380
CC(C)(NC(=O)C(NC(=O)Cn1nc(-c2ccc(Cl)cc2)n(C[C@H](O)C(F)(F)F)c1=O)c1cccc(C(F)(F)F)c1)C(N)=O (single isomer, unassigned) [Example 29] | 3.3 | 1
CC(C)(CO)NC(=O)C(NC(=O)Cn1nc(-c2ccc(Cl)cc2)n(C[C@H](O)C(F)(F)F)c1=O)c1cccc(C(F)(F)F)c1 (single isomer, unassigned) [Example 41] | 3.6 | 1.5
CC(C)(CO)NC(=O)C(NC(=O)Cn1nc(-c2ccc(Cl)cc2)n(C[C@H](O)C(F)(F)F)c1=O)c1cccc(C(F)(F)F)c1 (single isomer, unassigned) [Example 42] | 158 | 38
COCCn1c(-c2ccc(Cl)s2)nn(CC(=O)NC(C(=O)NC(C)(C)CO)c2cccc(C(F)(F)F)c2)c1=O (single isomer, unassigned) [Example 43, 2-({[3-(5-Chloro-2-thienyl)-4-(2-methoxyethyl)-5-oxo-4,5-dihydro-1H-1,2,4-triazol-1-yl]acetyl}amino)-N-(1-hydroxy-2-methylpropan-2-yl)-2-[3-(trifluoromethyl)phenyl]acetamide] | 1600 | 60
O=C(Cn1nc(-c2ccc(Cl)cc2)n(C[C@H](O)C(F)(F)F)c1=O)NC(C(=O)NCCOC(F)(F)F)c1cccc(C(F)(F)F)c1 (single isomer, unassigned) [Example 59] | 61 | 136
O=C(Cn1nc(-c2ccc(Cl)cc2)n(C[C@H](O)C(F)(F)F)c1=O)NC(C(=O)NCCOC(F)(F)F)c1cccc(C(F)(F)F)c1 (single isomer, unassigned) [Example 60] | 19.7 | 3
CCOC(=O)C1(NC(=O)C(NC(=O)Cn2nc(-c3ccc(Cl)cc3)n(C[C@H](O)C(F)(F)F)c2=O)c2cccc(C(F)(F)F)c2)CC1 (stereo partly drawn) [Example 1, Ethyl 1-({[({3-(4-chlorophenyl)-5-oxo-4-[(2S)-3,3,3-trifluoro-2-hydroxypropyl]-4,5-dihydro-1H-1,2,4-triazol-1-yl}acetyl)amino][3-(trifluoromethyl)phenyl]acetyl}amino)cyclopropanecarboxylate] | 58 | 9.2
O=C(O)CCNC(=O)C(NC(=O)Cn1nc(-c2ccc(Cl)cc2)n(C[C@H](O)C(F)(F)F)c1=O)c1cccc(C(F)(F)F)c1 (stereo partly drawn) [Example 14, N-{[({3-(4-Chlorophenyl)-5-oxo-4-[(2S)-3,3,3-trifluoro-2-hydroxypropyl]-4,5-dihydro-1H-1,2,4-triazol-1-yl}acetyl)amino][3-(trifluoromethyl)phenyl]acetyl}-beta-alanine] | 9 | 53

Source: US9034855B2, “Substituted phenylacetate and phenylpropane amides and use thereof” (Bayer Intellectual Property GmbH, priority 2010, dated 2015)
